Reference: patent publication US10781203B2, “Nontoxic compounds for the treatment and prevention of herpesvirus infections” (The Penn State Research Foundation, priority 2016, dated 2020)

Key:
[1] = system: cells; assay: Cell viability after extended treatment (trypan blue, bright field); type: cell-based
Source text: FIG. 3A is a growth curve analysis of HCMV (MOI=3) in untreated (WT), vehicle treated (DMSO) or Retro94-treated cells. Samples were harvested at 24, 48, 72, 96, 120 and 144 hpi. […] Nuclei labeled with DAPI (blue). Scale bars: 10 μm. FIG. 3C is a growth curve analysis of HCMV (MOI=0.05) in DMSO control (DMSO) or Retro94-treated cells. Samples were harvested at 3, 6, 9, 12 and 15 dpi. Asterisks indicate change of media with fresh Retro94. […] Bright field images of cell monolayers at 4 days post treatment are shown below graph. Brefeldin A was included as a positive control for cell death. Values in FIGS. 3A and 3C are from one representative experiment.
Normal human dermal fibroblasts, HDFs (Cell Applications Inc. 106-05N), and normal human lung fibroblasts, MRC-5 cells (ATCC CCL-171) were maintained in Dulbecco's modified Eagle's medium (DMEM) (Lonza). Human retinal pigmented epithelial cells (ARPE-19), maintained in DMEM/Ham's F12 (1:1 mix) (Lonza), human embryonic lung fibroblasts (HEL) and mouse embryonic fibroblasts (NIH 3T3), maintained in DMEM (Lonza) were obtained (Spector D J, Yetming K. Virology. 2010; 407(2):171-7; Spector D J. Virology. 2015, 476:345-54). All media was supplemented with 10% fetal bovine serum, 100 U/ml penicillin and 100 µg/ml streptomycin, and 2 mM GlutaMAX (Gibco). Cells were maintained at 37° C. with 5% CO2. […]

[2] = system: cytoplasmic viral assembly compartment (cVAC); assay: Electron microscopy of HCMV-infected cells; type: cell-based, human; conditions: MOI=3; 96 hpi; treated at 2 hpi
Method: Cells were seeded on 60 mm Permanox tissue culture dishes (Nalge Nunc International). Infections were done at an MOI of 3 for 96 hours. Cells were first washed with PBS 3× followed by fixation for 1 hour at 4° C. in fixation buffer (0.5% [vol/vol] glutaraldehyde, 0.04% [wt/vol] paraformaldehyde, 0.1 M sodium cacodylate). Cells were then processed for EM by the Microscopy Imaging Facility (Pennsylvania State University College of Medicine). Briefly, the fixed samples were washed three times with 0.1 M sodium cacodylate, followed by postfixation in 1% osmium −1.5% potassium ferrocyanide overnight at 4° C. Samples were then washed 3 times in 0.1 M sodium cacodylate, dehydrated with ethanol, and embedded in Epon 812 for staining and sectioning. Images were acquired using a JEOL JEM-1400 Digital Capture transmission electron microscope.

[3] = system: cytoplasmic viral assembly compartment (cVAC); assay: cVAC morphology / localization of viral and cellular markers by fluorescence microscopy; type: cell-based, human
Method: Coverslips or chamber slides containing either uninfected or HCMV-infected cells were washed in phosphate-buffered saline (PBS) and fixed in 2% paraformaldehyde for 15 min at room temperature. Cells were blocked in PBS containing 10% human serum, 0.5% Tween-20, and 5% glycine. 0.1% Triton-X 100 was added for permeabilization. Primary and secondary antibodies as specified in the antibody section were diluted in blocking buffer. Nuclei were stained with DAPI prior to mounting with ProLong Diamond Antifade Mountant (ThermoScientific). For live-cell experiments using the pp28-mCherry virus, cells were grown on glass bottom microwell dishes (MatTek Corporation) and nuclei were stained with NucBlue Live Cell Stain ReadyProbes reagent (ThermoScientific). All images were acquired using a C2+ Confocal Microscope System (Nikon). Images were processed using NIS elements software. Images shown are volume renderings of Z-stacks.

[4] = system: HCMV; assay: HCMV multi-step growth curve (MOI=0.05); type: cell-based, Human cytomegalovirus (HCMV); conditions: MOI 0.05 pfu/cell; 15 dpi; media exchanged and fresh drug added at 6 dpi
Method: Infections were done at an MOI of 0.05 for multi-step growth curves and MOI 3 for single-step growth curves. Infections were done on NHDFs unless otherwise noted. Virus was incubated with cells for 2 hours before addition of fresh media. For growth curve analyses, virus was harvested at the indicated time-points for each experiment by scraping the cells into the medium, sonicating 10 times with 1 second pulses, vortexing for 15 seconds, and centrifuging at 13,000 rpm for 10 min. Supernatants were collected, aliquoted and flash-frozen in liquid nitrogen before storage at −80° C.
For MCMV growth curve analysis, samples were titrated on NIH 3T3 cells and titers were calculated using the 50% tissue culture infective dose method. Both HCMV virus stocks and samples for growth curves were titrated by serial dilutions on MRC5 cells and quantified by the immunological detection of immediate-early proteins as previously described (Britt W J. Human cytomegalovirus: propagation, quantification, and storage. Curr Protoc Microbiol. 2010; Chapter 14: Unit 14E.3). The numbers of stained nuclei were acquired on a Nikon Eclipse Ti Inverted microscope and fluorescent nuclei were quantified using the NIS Elements Software. Images of viral foci from infection of ARPE19 cells were also acquired on Eclipse Ti Inverted microscope. The number and size of foci were quantified using NIS Elements software. […]

## Cc1nc(-c2ccc(C3N(C)c4ccccc4C(=O)N3c3ccccc3)s2)cs1 (stereo not shown) [Retro94, 1-Methyl-2-(5-(2-methylthiazol-4-yl)thiophen-2-yl)-3phenyl-2,3-dihydroquinazolin-4(1H)-one]
[1]
  effect on cell viability or cell morphology: no effect
[2]
  capsids in perinuclear region (EM): largely devoid of capsids at all stages of maturation
[3]; 96 hpi, 10 μM
  localization of viral proteins pp28, pp150 and glycoprotein B: dispersed throughout the cytoplasm and were no longer present in the cVAC
[3]; MOI=3, 96 hpi
  localization of GS27 and GS28: mostly remained in a perinuclear localization
  localization of markers of Golgi (GM130), TGN (p230) and endosomes (EEA1): retained their perinuclear localization
  normal cVAC morphology: did not form
[3]; added at 2 or 24 hpi, imaged at 96 hpi
  cVAC as detected by pp28-mCherry: no area representing a cVAC was detected
[3]; added at 48 hpi, imaged at 96 hpi
  pp28 localization (pp28-mCherry): largely dispersed throughout the cell
[3]; added at 72 hpi, imaged at 96 hpi
  perinuclear pp28 regions reminiscent of the cVAC: more prominent
[4]
  reduction in the amount of infectious virus produced: five
